For seven compounds, IC50 results are on record in US5650415A, “Quinoline compounds” (Sugen, Inc., priority 1995, dated 1997).

pIC50: −log10 of the molar value. Some results are limits rather than exact numbers.

This assay has as its target T1, EGFR (Homo sapiens, UniProt P00533).
T1 construct: expressed in transfected cells; host or cells: NIH3T3 clone C7 (EGFR/C7)
Description: EGFR Whole Cell Kinase Assay (ELISA). Format: cell-based. Conditions: NIH3T3 clone C7 over-expressing human EGF receptor. From the text:
The following examples illustrates the ability of the exemplary compounds to inhibit receptor tyrosine kinases, such as HER2 and/or EGFR. The following target cells were used for cellular kinase assays: NIH3T3 clone C7 (Honegger et al., supra) engineered to over-express human EGF receptor; NIH3T3 cells engineered to over-express a chimeric receptor containing the EGFR extracellular domain and the HER2 intracellular kinase domain; the human mammary carcinoma line BT474 (ATCC HTB2) expressing HER2; and the human glioblastoma line U1242 that expresses PDGFR-beta. Growth assays were carried out using human mammary epithelial SKBR3 (ATCC HTB30) cells (SKBR3 cells over-express HER2), SKOV3 (AT(D(D HTB77) human ovarian cancer cell line (SKOV3 cells also over-express HER2), A431 cells (A431 cells over-express EGFR) MCF7 human breast carcinoma cells, MCF7 cells overexpressing the HER2 kinase (MCF7-HER2), NIH3T3 cells, and NIH3T3 cells overexpressing the HER2 kinase (3T3-HER2.
EGFR Whole Cell Kinase Assay
EGFR kinase activity (EGFR-3T3 assay) in whole cells was measured as described below:
A. Coat ELISA plates (Corning, 96 well, Cat. #25805-96) with 05-101 antibody at 0.5 μg per well in PBS, 150 μl final volume/well, and store overnight at 4.sunburst. C. Coated plates are good for up to 10 days when stored at 4.sunburst. C.
B. On day of use, remove coating buffer and replace with blocking buffer (5% Carnation Instant NonFat Dry Milk in PBS). Incubate the plate, shaking, at room temperature (about 23.sunburst. C. to 25.sunburst. C.) for 30 minutes. Just prior to use, remove blocking buffer and wash plate 4 times with TBST buffer.
A. EGFR/C7 cell line (Honegger, et al., supra) can be used for this assay.
B. Choose dishes having 80-90% confluence for the experiment. Trypsinize cells and stop reaction by adding 10% CS DMEM medium. Suspend cells in DMEM medium (10% CS DMEM medium) and centrifuge once at 1000 rpm, and once at room temperature for 5 minutes.
C. Resuspend cells in seeding medium (DMEM, 0.5% bovine serum), and count the cells using trypan blue. Viability above 90% is acceptable. Seed cells in DMEM medium (0.5% bovine serum) at a density of 10,000 cells per well, 100 μl per well, in a 96 well microtiter plate. Incubate seeded cells in 5% CO2 at 37.sunburst. C. for about 40 hours.
A. Check seeded cells for contamination using an inverted microscope. Dilute drug stock (10 mg/ml in DMSO) 1:10 in DMEM medium, then transfer 5 μl to a test well for a final drug dilution of 1:200 and a final DMSO concentration of […]. Control wells receive DMSO alone. Incubate in 5% CO2 at 37° C. for one hour.
B. Prepare EGF ligand: dilute stock EGF in DMEM so that upon transfer of 10 μl dilute EGF (1:12 dilution), 25 nM final concentration is attained.
C. Prepare fresh HNTG* sufficient for 100 μl per well; and place on ice.
D. After two hours incubation with drug, add prepared EGF ligand to cells, 10 μl per well, to yield a final concentration of 25 nM. Control wells receive DMEM alone. Incubate, shaking, at room temperature, for 5 minutes.
E. Remove drug, EGF, and DMEM. Wash cells twice with PBS. Transfer HNTG* to cells, 100 μl per well. Place on ice for 5 minutes. Meanwhile, remove blocking buffer from other ELISA plate and wash with TBST as described above.
F. With a pipette tip securely fitted to a micropipettor, scrape cells from plate and homogenize cell material by repeatedly aspirating and dispensing the HNTG* lysis buffer. Transfer lysate to a coated, blocked, and washed ELISA plate. Incubate shaking at room temperature for one hour.
G. Remove lysate and wash 4 times with TBST. Transfer freshly diluted anti-Ptyr antibody to ELISA plate at 100 μl per well. Incubate shaking at room temperature for 30 minutes in the presence of the anti-Ptyr antiserum (1:3000 dilution in TBST).
H. Remove the anti-Ptyr antibody and wash 4 times with TBST. […]
(In general: ELISA stands for enzyme-linked immunosorbent assay.)

T1 sequence (P00533 25-1210): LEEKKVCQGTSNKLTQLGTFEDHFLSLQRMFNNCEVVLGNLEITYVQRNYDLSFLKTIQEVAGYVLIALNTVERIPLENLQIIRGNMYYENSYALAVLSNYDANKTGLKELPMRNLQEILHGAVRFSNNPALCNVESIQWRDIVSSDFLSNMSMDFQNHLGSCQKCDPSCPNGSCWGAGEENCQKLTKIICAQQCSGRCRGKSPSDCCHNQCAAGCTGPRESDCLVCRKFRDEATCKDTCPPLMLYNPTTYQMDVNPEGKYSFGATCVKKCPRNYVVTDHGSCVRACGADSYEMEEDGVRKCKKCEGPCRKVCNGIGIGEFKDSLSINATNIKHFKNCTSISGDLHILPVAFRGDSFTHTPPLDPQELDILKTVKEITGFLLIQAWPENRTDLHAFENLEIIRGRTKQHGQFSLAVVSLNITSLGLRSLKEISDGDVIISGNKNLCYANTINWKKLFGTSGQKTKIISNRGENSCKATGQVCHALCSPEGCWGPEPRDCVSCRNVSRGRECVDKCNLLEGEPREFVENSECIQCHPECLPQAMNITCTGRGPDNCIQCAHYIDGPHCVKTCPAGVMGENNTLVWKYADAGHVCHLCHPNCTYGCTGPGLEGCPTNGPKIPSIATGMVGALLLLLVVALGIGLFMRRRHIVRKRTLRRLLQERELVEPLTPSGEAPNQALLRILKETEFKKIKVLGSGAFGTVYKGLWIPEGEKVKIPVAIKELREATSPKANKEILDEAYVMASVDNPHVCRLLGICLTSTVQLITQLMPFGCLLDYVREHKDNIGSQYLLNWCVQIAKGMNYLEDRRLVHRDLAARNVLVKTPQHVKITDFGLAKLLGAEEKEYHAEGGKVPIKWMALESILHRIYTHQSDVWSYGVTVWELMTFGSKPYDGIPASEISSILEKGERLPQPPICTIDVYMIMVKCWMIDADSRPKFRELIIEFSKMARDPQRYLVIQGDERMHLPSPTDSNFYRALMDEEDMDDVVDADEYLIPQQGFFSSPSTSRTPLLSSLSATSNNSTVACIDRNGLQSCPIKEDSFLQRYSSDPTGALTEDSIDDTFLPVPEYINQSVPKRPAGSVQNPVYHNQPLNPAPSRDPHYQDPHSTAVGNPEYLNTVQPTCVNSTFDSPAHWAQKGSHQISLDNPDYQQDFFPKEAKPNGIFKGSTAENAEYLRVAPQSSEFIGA

Usually pIC50 stands for −log10 of the IC50, conventionally taken in molar units. Low values mean a large IC50, high ones a small IC50. On to `CCOC(=O)c1cnc2c(F)ccc(F)c2c1Sc1cccc(C(F)(F)F)c1` [Compound A713, 3-Ethoxycarbonyl-5,8-difluoro-4-(3-trifluoromethylphenylmercapto)quinoline], for which the pIC50 is less than 4.00.

Compound `CCOC(=O)c1cnc2ccc(C(F)(F)F)cc2c1Nc1cccc(Br)c1` [Compound A716, 4-(3-Bromophenylamino)-3-ethoxycarbonyl-6-trifluoromethylquinoline] showed a pIC50 of less than 4.00.

For `CCOC(=O)c1cnc2ccc(C(F)(F)F)cc2c1Nc1cccc(C(F)(F)F)c1` [Compound A721, 3-Ethoxycarbonyl-4-(3-trifluoromethylphenylamino)-6-trifluoromethylquinoline], the pIC50 was less than 4.00.

`CCOC(=O)c1cnc2ccc(C(F)(F)F)cc2c1Nc1ccc(C(F)(F)F)cc1` [Compound A722, 3-Ethoxycarbonyl-4-(4-trifluoromethylphenylamino)-6-trifluoromethylquinoline] had a pIC50 of less than 4.00.

For `CCOC(=O)c1cnc2c(F)cc(F)cc2c1Sc1ccc(Cl)cc1` [Compound A730, 4-(4-Chlorophenylmercapto)-6,8-difluoro-3-ethoxycarbonylquinoline], the pIC50 is less than 4.30.

`CCOC(=O)c1cnc2cc(Cl)c(F)cc2c1Sc1ccc(Cl)cc1` [Compound A731, 7-Chloro-4-(4-chlorophenylmercapto)-6-fluoro-3-ethoxycarbonylquinoline]: the pIC50 is less than 4.30.

Take `CCOC(=O)c1cnc2c(F)ccc(F)c2c1Sc1ccc(Cl)cc1` [Compound A732, 4-(4-Chlorophenylmercapto)-5,8-difluoro-3-ethoxycarbonylquinoline]: the pIC50 was less than 4.00.
